Assay results taken from patent US20260295053A1, “COMPOUNDS FOR DEGRADATION AND INHIBITION OF KRAS (G12D) PROTEIN” (Shenzhen Ionova Life Science Co., Ltd., priority 2023, published 2026).

Tests used:
AsPC-1 cells = assay: AsPC-1 cell proliferation assay (CellTiter Glo); assay type: cell-based; details: Homo sapiens, ASPC1, 144 h, 6 days
Outline: (§1)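 AsPC-1 cells were seeded at 22,000/well for degradation and 3,500/well for proliferation. Compounds in 1:3 dilutions ([…] to 1.5 nM final) ran 24 h for degradation, read by in-cell immunofluorescence of KRAS G12D normalised to β-actin, and 6 days for proliferation (CellTiter Glo luminescence). DC50/IC50 came from dose-response fits.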

KRAS (G12D) = molecular target: T1, KRAS (G12D) (Homo sapiens, UniProt P01116, G12D); assay: KRAS (G12D) cellular degradation assay in AsPC-1 cells; assay type: cell-based; details: 24 hours, antibody fluorescence (Odyssey CLX), DC50 half-maximal degradation concentration
T1 construct: in-cell western with KRAS G12D antibody after 24 h
Outline: as §1

T1 sequence (P01116 1-188 isoform P01116-2 G12D): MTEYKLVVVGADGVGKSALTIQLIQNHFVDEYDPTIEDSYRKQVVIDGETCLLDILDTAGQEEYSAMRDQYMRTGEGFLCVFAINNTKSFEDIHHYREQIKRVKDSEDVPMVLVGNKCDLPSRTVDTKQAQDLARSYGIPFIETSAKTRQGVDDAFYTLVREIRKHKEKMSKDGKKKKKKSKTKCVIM

Compound | IC50 (AsPC-1 cells) [nM] | DC50 (KRAS (G12D)) [nM]
CCn1nccc1-c1ccc([C@@H](NC(=O)[C@@H]2C[C@@H](O)CN2C(=O)[C@H](C(C)C)n2cc(-c3ccc(COc4c(-c5c(C)c(F)cc6[nH]ncc56)c(C5CC5)cc5c(N6CCNCC[C@H]6C)nc(OC[C@H](C)OC)nc45)cc3)nn2)[C@H](C)O)cc1 [Example 201, (2S,4R)-1-((2S)-2-(4-(4-(((6-cyclopropyl-7-(6-fluoro-5-methyl-1H-indazol-4-yl)-2-((S)-2-methoxypropoxy)-4-((R)-7-methyl-1,4-diazepan-1-yl)quinazolin-8-yl)oxy)methyl)phenyl)-1H-1,2,3-triazol-1-yl)-3-methylbutanoyl)-N-((1R,2S)-1-(4-(1-ethyl-1H-pyrazol-5-yl)phenyl)-2-hydroxypropyl)-4-hydroxypyrrolidine-2-carboxamide] | < 10 | < 10
CO[C@H]1C[C@H](Oc2nc(N(C)[C@@H]3CCNC3)c3cc(C4CC4)c(-c4c(C)c(F)cc5[nH]ncc45)c(OCc4ccc(-c5cn([C@H](C(=O)N6C[C@H](O)C[C@H]6C(=O)N[C@H](c6ccc(-c7scnc7C)cc6)[C@H](C)O)C(C)C)nn5)cc4)c3n2)C1 [Example 202, (2S,4R)-1-((2S)-2-(4-(4-(((6-cyclopropyl-7-(6-fluoro-5-methyl-1H-indazol-4-yl)-2-((1r,3R)-3-methoxycyclobutoxy)-4-(methyl((R)-pyrrolidin-3-yl)amino)quinazolin-8-yl)oxy)methyl)phenyl)-1H-1,2,3-triazol-1-yl)-3-methylbutanoyl)-4-hydroxy-N-((1R,2S)-2-hydroxy-1-(4-(4-methylthiazol-5-yl)phenyl)propyl)pyrrolidine-2-carboxamide] | < 10 | < 10
CO[C@H]1C[C@H](Oc2nc(N(C)[C@@H]3CCNC3)c3cc(C4CC4)c(-c4c(C)c(F)cc5[nH]ncc45)c(OCc4ccc(-c5cn([C@H](C(=O)N6C[C@H](O)C[C@H]6C(=O)N[C@@H](CO)c6ccc(-c7scnc7C)cc6)C(C)C)nn5)cc4)c3n2)C1 [Example 203, (2S,4R)-1-((2S)-2-(4-(4-(((6-cyclopropyl-7-(6-fluoro-5-methyl-1H-indazol-4-yl)-2-((1r,3R)-3-methoxycyclobutoxy)-4-(methyl((R)-pyrrolidin-3-yl)amino)quinazolin-8-yl)oxy)methyl)phenyl)-1H-1,2,3-triazol-1-yl)-3-methylbutanoyl)-4-hydroxy-N—((R)-2-hydroxy-1-(4-(4-methylthiazol-5-yl)phenyl)ethyl)pyrrolidine-2-carboxamide] | < 10 | < 10
CCn1nccc1-c1ccc([C@H](CO)NC(=O)[C@@H]2C[C@@H](O)CN2C(=O)[C@H](C(C)C)n2cc(-c3ccc(COc4c(-c5c(C)c(F)cc6[nH]ncc56)c(C5CC5)cc5c(N(C)[C@@H]6CCNC6)nc(O[C@H]6C[C@H](OC)C6)nc45)cc3)nn2)c2c1CC2 [Example 204, (2S,4R)-1-((2S)-2-(4-(4-(((6-cyclopropyl-7-(6-fluoro-5-methyl-1H-indazol-4-yl)-2-((1r,3R)-3-methoxycyclobutoxy)-4-(methyl((R)-pyrrolidin-3-yl)amino)quinazolin-8-yl)oxy)methyl)phenyl)-1H-1,2,3-triazol-1-yl)-3-methylbutanoyl)-N—((R)-1-(5-(1-ethyl-1H-pyrazol-5-yl)bicyclo[4.2.0]octa-1(6),2,4-trien-2-yl)-2-hydroxyethyl)-4-hydroxypyrrolidine-2-carboxamide] | < 10 | < 10
CCn1nccc1-c1ccc([C@H](CO)NC(=O)[C@@H]2C[C@@H](O)CN2C(=O)[C@H](C(C)C)n2cc(-c3ccc(COc4c(-c5c(C)c(F)cc6[nH]ncc56)c(C5CC5)cc5c(N(C)[C@@H]6CCNC6)nc(O[C@H]6C[C@H](OC)C6)nc45)cc3)nn2)cc1 [Example 205, (2S,4R)-1-((2S)-2-(4-(4-(((6-cyclopropyl-7-(6-fluoro-5-methyl-1H-indazol-4-yl)-2-((1r,3R)-3-methoxycyclobutoxy)-4-(methyl((R)-pyrrolidin-3-yl)amino)quinazolin-8-yl)oxy)methyl)phenyl)-1H-1,2,3-triazol-1-yl)-3-methylbutanoyl)-N—((R)-1-(4-(1-ethyl-1H-pyrazol-5-yl)phenyl)-2-hydroxyethyl)-4-hydroxypyrrolidine-2-carboxamide] | < 10 | < 10
CCn1nccc1-c1ccc([C@H](CO)NC(=O)[C@@H]2C[C@@H](O)CN2C(=O)[C@H](C(C)C)n2cc(-c3ccc(COc4c(-c5c(C)c(F)cc6[nH]ncc56)c(C5CC5)cc5c(N(C)C[C@H]6CCNC6)nc(OC[C@H](C)OC)nc45)cc3)nn2)cc1 [Example 206, (2S,4R)-1-((2S)-2-(4-(4-(((6-cyclopropyl-7-(6-fluoro-5-methyl-1H-indazol-4-yl)-2-((S)-2-methoxypropoxy)-4-(methyl(((S)-pyrrolidin-3-yl)methyl)amino)quinazolin-8-yl)oxy)methyl)phenyl)-1H-1,2,3-triazol-1-yl)-3-methylbutanoyl)-N—((R)-1-(4-(1-ethyl-1H-pyrazol-5-yl)phenyl)-2-hydroxyethyl)-4-hydroxypyrrolidine-2-carboxamide] | < 10 | < 10
CCn1nccc1-c1ccc([C@H](CO)NC(=O)[C@@H]2C[C@@H](O)CN2C(=O)[C@H](C(C)C)n2cc(-c3ccc(COc4c(-c5c(C)c(F)cc6[nH]ncc56)c(C5CC5)cc5c(N6CCCNCC6)nc(OC[C@@H]6CCCO6)nc45)cc3)nn2)cc1 [Example 207, (2S,4R)-1-((2S)-2-(4-(4-(((6-cyclopropyl-4-(1,4-diazepan-1-yl)-7-(6-fluoro-5-methyl-1H-indazol-4-yl)-2-(((S)-tetrahydrofuran-2-yl)methoxy)quinazolin-8-yl)oxy)methyl)phenyl)-1H-1,2,3-triazol-1-yl)-3-methylbutanoyl)-N—((R)-1-(4-(1-ethyl-1H-pyrazol-5-yl)phenyl)-2-hydroxyethyl)-4-hydroxypyrrolidine-2-carboxamide] | < 10 | < 10
Cc1ncsc1-c1ccc([C@@H](NC(=O)[C@@H]2C[C@@H](O)CN2C(=O)[C@H](C(C)C)n2cc(-c3ccc(COc4c(-c5c(C)c(F)cc6[nH]ncc56)c(C5CC5)cc5c(N(C)[C@H]6CCNC6)nc(OC[C@H]6CCCO6)nc45)cc3)nn2)[C@H](C)O)cc1 [Example 208, (2S,4R)-1-((2S)-2-(4-(4-(((6-cyclopropyl-7-(6-fluoro-5-methyl-1H-indazol-4-yl)-4-(methyl((S)-pyrrolidin-3-yl)amino)-2-(((R)-tetrahydrofuran-2-yl)methoxy)quinazolin-8-yl)oxy)methyl)phenyl)-1H-1,2,3-triazol-1-yl)-3-methylbutanoyl)-4-hydroxy-N-((1R,2S)-2-hydroxy-1-(4-(4-methylthiazol-5-yl)phenyl)propyl)pyrrolidine-2-carboxamide] | < 10 | < 10
